Experiments:
A549-ON cells = assay: Annexin V/PI apoptosis flow cytometry in A549-ON cells; assay type: cell-based, human; conditions: 30 μM, early and late apoptosis, flow cytometry
Procedure: At the end of treatment, apoptosis was measured by Annexin V-PI staining using flow cytometry analysis. The population of Annexin V+/PI− cells represents cells undergoing early apoptosis (low right), whereas the fraction of Annexin V+/PI+ cell are those undergoing late apoptosis (upper right). The representative flow data were shown from one of three separate experiments with similar findings.
The bar represents the mean±S.E.M. ***p<0.001 indicates significant difference between untreated and SP101 or Gefitinib treated samples.
We compared the apoptosis levels of SP101 and Gefitinib in cancer stem-like A549-ON cells by Annexin V and PI staining. Please refer to FIG. 19. […] Please refer to FIG. 20. The average of total apoptosis follows SP101 and Gefitinib in the A549-ON cells around 69.29% and 7.59%, respectively.

H1975 xenograft tumors = assay: Xenografted human NSCLC (H1975) tumors in nude mice; assay type: in vivo; conditions: 30 mg/kg once per four days, during the treatment period
Description: The results were obtained from twelve mice and the bar represents the mean±S.E.M.**p<0.01, indicating significant difference between control and SP101 treatment group mice. ###p<0.001 indicates significant differences between SP101 and Gefitinib-treated mice.
The tumor weight was means±*p<0.05 indicating significant differences between control and SP101 treatment group mice. #p<0.05 indicates significant differences between SP101 and Gefitinib-treated mice.
NSCLC tumors in nude mice were established. Seven-week-old nude mice were subcutaneously injected with 3×10^6 H1975 cells. Please refer to FIGS. 7 and 8. After 7 to 10 days inoculation, the nude mice were treated with vehicle or 30 mg/kg SP101 or 30 mg/kg Gefitinib once per four days and tumor sizes in the nude mice were measured every four days. The nude mice were sacrificed after treatment for 16 days; the tumors were harvested to measure tumor volume/weight and further analyze tumor tissues. […] Please refer to FIG. 9.

With `COc1cc2ncnc(Nc3ccc(F)c(Cl)c3)c2cc1OCCCN1CCOCC1` [Gefitinib, reference compound] the “average of total apoptosis” value (A549-ON cells) was ~7.59% and the “body weight of the nude mice” value (H1975 xenograft tumors) was “did not alter”.
